Activity and inhibition data for 18 compounds are collected here from ChEMBL document CHEMBL3217483, “Developing novel non-hydroxamate histone deacetylase inhibitors: the chelidamic warhead” (2012).

The subject of assay [1] is U-937. In words: Cell cycle arrest in human U937 cells assessed as block in S phase at 50 uM after 30 hrs by propidium iodide staining based flow cytometry. It is filed as functional. (In general: Flow cytometry measures light scatter and fluorescence of single cells or particles in a stream.)
The target of assay [2] is T1, Histone deacetylase (Homo sapiens) (UniProt Q13547+O15379+Q9UBN7+Q92769+Q9UQL6+Q8WUI4+Q9BY41+Q96DB2+P56524+Q9UKV0+Q969S8). In words: Inhibition of HDAC in human U937 cells assessed as slight increase in alpha tubulin acetylation at 50 uM after 24 hrs by western blot analysis. It is filed as cell-based. The settings on record: U-937. A general note: In western blotting, separated proteins are transferred to a membrane and probed.

Assay [3] deals with T1, Histone deacetylase (Homo sapiens). In words: Inhibition of HDAC in human U937 cells assessed as slight increase in histone H3 acetylation at 50 uM after 24 hrs by western blot analysis. The settings on record: U-937. It is filed as cell-based.
Assay [4] relates to U-937. Description: Induction of apoptosis in human U937 cells after 30 hrs by caspase 3-7 activation method based FACS analysis. It is filed as functional, cell-based.
Assay [5] has as its system U-937. Description: Induction of apoptosis in human U937 cells at 50 uM after 30 hrs by caspase 3-7 activation method based FACS analysis. It is filed as functional.
Assay [6] has as its target T1, Histone deacetylase (Homo sapiens). In words: Inhibition of HDAC in human U937 cells assessed as increase in histone H3 acetylation at 50 uM after 24 hrs by western blot analysis. The settings on record: U-937. It is filed as cell-based.
For assay [7] the target is unchanged. In words: Inhibition of HDAC in human U937 cells assessed as increase in alpha tubulin acetylation at 50 uM after 24 hrs by western blot analysis. It is filed as cell-based. The following applies: U-937.
For assay [8], the system named is U-937. In words: Induction of granulocytic differentiation in human U937 cells assessed as CD11c positive/propidium iodide negative cells at 50 uM after 30 hrs by FACS analysis. It is filed as functional.
The subject of assay [9] is U-937. Description: Induction of granulocytic differentiation in human U937 cells assessed as CD11c positive/propidium iodide negative cells after 30 hrs by FACS analysis. It is filed as functional, cell-based.

Activity calls are given as the source filed them. The rule behind the calls is not given here.

Regarding `COC(=O)c1cc(OCc2ccc(NC(=O)Cc3ccccc3)cc2)cc(C(=O)OC)n1`, in the assay with U-937 [1], the result was Active. For the same compound, the inhibition result in assay [2] and in assay [3] was “inactive” throughout.
On to `COC(=O)c1cc(OCCOc2ccc(NC(=O)Cc3ccccc3)cc2)cc(C(=O)OC)n1`, for which the outcome with U-937 [1] was Active. For the same compound, the inhibition result in assay [2] and in assay [3] was “inactive” each time.
For `O=C(O)c1cc(OCCCSc2nc(-c3ccccc3)cc(=O)[nH]2)cc(C(=O)O)n1`, in the assay on U-937 [1], the result was inactive. Besides, the inhibition entry in assay [2] and in assay [3] was “inactive” in each case.
Turning to `COC(=O)c1cc(OCCCCCCCOc2ccc(NC(=O)Cc3ccccc3)cc2)cc(C(=O)OC)n1`, the outcome with U-937 [1] was Active. The inhibition result in [2] and in assay [3] was “inactive” throughout.
As to `COC(=O)c1cc(OCCCCCCCCOc2ccc(NC(=O)Cc3ccccc3)cc2)cc(C(=O)OC)n1`, the result in the assay with U-937 [1] was Active. Besides, the inhibition entry in [2] and in [3] was “inactive” in each case.
Consider `COC(=O)c1cc(OCCCCCCOc2ccc(NC(=O)Cc3ccccc3)cc2)cc(C(=O)OC)n1`, for which, in the assay on U-937 [1], the outcome was Active. Moreover, the inhibition entry in [2] and in assay [3] was “inactive” throughout.
For the compound `COC(=O)c1cc(OCCCCC(=O)Nc2ccccc2)cc(C(=O)OC)n1`, in the assay with U-937 [1], the result was Active. The inhibition entry in assay [2] and in assay [3] was “inactive” in each case.
Regarding `COC(=O)c1cc(OCCCCCSc2nc(-c3ccccc3)cc(=O)[nH]2)cc(C(=O)OC)n1`, the Activity result was “Dose-dependent effect” in the assay with U-937 [4], “<=50%” with U-937 [5] and “<=50%” in the assay on U-937 [1]. Further, the inhibition entry in assay [6] and in assay [7] was “Active” in each case.
For the compound `COC(=O)c1cc(OCCCCCOc2ccc(NC(=O)Cc3ccccc3)cc2)cc(C(=O)OC)n1`, in the assay on U-937 [1], the result was Active. The inhibition entry in assay [2] and in assay [3] was “inactive” in each case.
`O=C(O)c1cc(OCCCCSc2nc(-c3ccccc3)cc(=O)[nH]2)cc(C(=O)O)n1`: in the assay on U-937 [1], the outcome was inactive. Also, the inhibition result in assay [2] and in assay [3] was “inactive” in each case.
As to `COC(=O)c1cc(OCCCSc2nc(-c3ccccc3)cc(=O)[nH]2)cc(C(=O)OC)n1`, the inhibition entry in assay [2] and in assay [3] was “inactive” throughout.
Turning to `COC(=O)c1cc(OCCCOc2ccc(NC(=O)Cc3ccccc3)cc2)cc(C(=O)OC)n1`, the result in the assay on U-937 [1] was Active. For the same compound, the inhibition result in assay [2] and in [3] was “inactive” each time.
Take `COC(=O)c1cc(OCCSc2nc(-c3ccccc3)cc(=O)[nH]2)cc(C(=O)OC)n1`: the Activity result with U-937 [4] was “Dose-dependent effect”; with U-937 [5], “<=50%”; in the assay on U-937 [1], “<=50%”. Further, the inhibition entry in assay [6] and in assay [7] was “Active” throughout.
In the case of `COC(=O)c1cc(OCCCCSc2nc(-c3ccccc3)cc(=O)[nH]2)cc(C(=O)OC)n1`, the Activity result in the assay on U-937 [4] is “Dose-dependent effect”; with U-937 [5] it was “<=50%”; in the assay on U-937 [1], “<=50%”. For the same compound, the inhibition result in assay [6] and in assay [7] was “Active” throughout.
With `COC(=O)c1cc(OCCCCOc2ccc(NC(=O)Cc3ccccc3)cc2)cc(C(=O)OC)n1`, in the assay on U-937 [1], the result was Active. The inhibition result in assay [2] and in [3] was “inactive” throughout.
Regarding `O=C(O)c1cc(OCCCCCSc2nc(-c3ccccc3)cc(=O)[nH]2)cc(C(=O)O)n1`, the outcome with U-937 [1] was inactive. Moreover, the inhibition result in [2] and in [3] was “inactive” in each case.
In the case of `COC(=O)c1cc(Oc2ccc(NC(=O)Cc3ccccc3)cc2)cc(C(=O)OC)n1`, the results for the Activity result in the assay with U-937 [8] and in the assay with U-937 [9] were “<=40%” and “Dose-dependent effect”, respectively. In addition, the outcome in the assay on U-937 [1] was Active. Also, the inhibition result in [2] and in [3] was “inactive” each time.
Take `O=C(O)c1cc(OCCSc2nc(-c3ccccc3)cc(=O)[nH]2)cc(C(=O)O)n1`: the result in the assay with U-937 [1] was inactive. For the same compound, the inhibition entry in [2] and in assay [3] was “inactive” each time.
